Measurements as given in US12385042B2, “Cell-penetrating peptides” (VECTIOPEP OÜ, priority 2019, dated 2025).
Entries after “also recorded” stand apart in the source; their conditions may differ. Read-outs that look alike come from different tables or passages of the source. Where a SMILES comes first, the peptide text is derived from it. Bridges are numbered along the chain shown (N, C = ends). Roman numbers before positions name the chains, in order. [ ]: non-standard residue; d: D form. The star is where a group is joined. Arachidoyl = CCCCCCCCCCCCCCCCCCCC(=O)*; Stearoyl = CCCCCCCCCCCCCCCCCC(=O)*; Orn = NCCC[C@H](N)C(=O)O

How the values were obtained:
[1] = tested on: U87 MG-luc2 human glioma cells, stably expressing luc2; assay: Luciferase gene downregulation by CPP/siRNA (siLuc2) complexes; type: cell-based; settings: for luciferase downregulation efficiency (in words) / Red (%) (reduction, based on remaining luminescence on U87 cells post-treatment): CPP/siRNA complexes; for luciferase downregulation efficiency (in words): comparison between CPPs; for Red (%) (reduction, based on remaining luminescence on U87 cells post-treatment): siRNA against luciferase; for IC50: read-out: IC50 (siRNA concentration), luciferase downregulation; for remaining reporter activity: molar ratio 30 (MR30, peptide to siRNA), untreated cells 100%
Procedure, shortened: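 U87-luc2 cells in serum-containing medium got peptide/siLuc2 complexes formed in water (pH 5.3-6.3, MR 40:1, 1 h RT) at 25 nM siRNA for 4 h at 37 °C, then 20 h more. Lysate luminescence normalized to protein; in other runs, MR30/10 nM in HEPES-FBS, or varied MR at 50 nM, vs untreated (100%).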

[2] = Fluorescent dye (PicoGreen) intercalation and heparin displacement assay of CPP/siRNA complexes; type: physicochemical; settings: for accessibility of siRNA in complexes (dye intercalation): MR30, no heparin
Procedure, shortened: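 PicoGreen fluorescence (ex 492/em 535 nm) of CPP/siRNA complexes in water after 5 min with dye, reporting siRNA accessibility. In the displacement arm, complexes were first incubated with heparin at varying concentrations for 30 min at 37 °C before adding PicoGreen.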

organs of BALB/c mice = assay: Gene delivery in vivo (CPP/pDNA, i.v., organ luminescence); design: species or system mouse; settings: for reporter gene expression in organs after i.v. CPP/pDNA (in words): CR2 or CR4, 50 μg or 20 μg pDNA, 24 h
Protocol: For in vivo pDNA delivery studies BALB/c mice were used. Each animal received a single […] intravenous (i.v.) injection of the complexes at CR2 or CR4. Two doses of pDNA […] were used. After 24 hr, the mice were sacrificed using cervical dislocation, and whole organs were harvested and snap-frozen on dry ice. The organs were homogenized, and luminescence was measured.

murine red blood cells = assay: Membrane activity assay on murine red blood cells: hemolysis; type: cell-based, mouse; settings: for HC50 CPP/siRNA complex (peptide concentration): CPP/siRNA complexes at MR30; for HC50 Free peptide: pH 7.5
Procedure, shortened: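 Washed BALB/c mouse RBCs in 2× PBS (pH 7.5 for hemolytic concentration; pH 5.5-7.5 otherwise) incubated with peptide plus glucose at 37° C for 1 h with gentle mixing. Released hemoglobin in supernatant read at 540 nm, scaled between glucose/water (0%) and 0.1% Triton X-100 (100%) controls.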

[3] = complexes formed at MR30, average

Row | SMILES | Red (%) (reduction, based on remaining luminescence on U87 cells post-treatment) [1] | IC50 [1, 3] | remaining reporter activity [1] | accessibility of siRNA in complexes (dye intercalation) [2] | reporter gene expression in organs after i.v. CPP/pDNA (in words) (organs of BALB/c mice) | HC50 CPP/siRNA complex (peptide concentration) (murine red blood cells) | HC50 Free peptide (murine red blood cells; free peptide) | other results
1 | CCCCCCCCCCCCCCCCCC(=O)N[C@@H](Cc1c[nH]cn1)C(=O)N[C@@H](Cc1c[nH]cn1)C(=O)N[C@@H](Cc1ccc(O)cc1)C(=O)N[C@@H](Cc1c[nH]cn1)C(=O)N[C@@H](Cc1c[nH]cn1)C(=O)NCC(=O)NCCC[C@H](N)C(=O)N[C@H](C(=O)N[C@@H](CC(C)C)C(=O)N[C@@H](CC(C)C)C(=O)N[C@@H](CCCCN)C(=O)N[C@@H](C)C(=O)N[C@@H](CC(C)C)C(=O)N[C@@H](CCCCN)C(=O)N[C@@H](C)C(=O)N[C@@H](CC(C)C)C(=O)N[C@@H](C)C(=O)N[C@@H](CCCCN)C(=O)N[C@@H](C)C(=O)N[C@H](C(=O)N[C@@H](CC(C)C)C(N)=O)[C@@H](C)CC)[C@@H](C)CC [NF71] (I: H-[Orn]ILLKALKALAKAIL-NH2 / II: Stearoyl-HHYHHG; amide I:1-II:C) | 88% | 0.0068 µM | 13% | low accessibility of siRNA | high reporter gene expression in liver and lungs | 2.5 µM | 1.2 µM | luciferase downregulation efficiency (in words) [1]: most efficient peptides even at low MRs; IC50 ([1]; complexes formed at MR20): 0.0111 µM; siRNA accessible ([2]; 0.5 mg/ml heparin, complexes pre-formed at MR30): 17%; stability of complexes to heparin displacement (in words) ([2]; complexes pre-formed at MR30): less resistant to heparin displacement than NF55/siRNA; transfection level in liver at CR2 compared to CR4 (organs of BALB/c mice; liver): 7 fold; transfection level in lungs at CR2 compared to CR4 (organs of BALB/c mice; lungs): 3 fold; hemolytic activity of free peptide (in words) (murine red blood cells; free peptide, up to 10 uM): more hemolytic than its parent peptide NF55
2 | CCCCCCCCCCCCCCCCCCCC(=O)N[C@@H](Cc1c[nH]cn1)C(=O)N[C@@H](Cc1c[nH]cn1)C(=O)N[C@@H](Cc1c[nH]cn1)C(=O)N[C@@H](Cc1c[nH]cn1)C(=O)N[C@@H](Cc1ccc(O)cc1)C(=O)N[C@@H](Cc1c[nH]cn1)C(=O)N[C@@H](Cc1c[nH]cn1)C(=O)NCC(=O)NCCC[C@H](N)C(=O)N[C@H](C(=O)N[C@@H](CC(C)C)C(=O)N[C@@H](CC(C)C)C(=O)N[C@@H](CCCCN)C(=O)N[C@@H](C)C(=O)N[C@@H](CC(C)C)C(=O)N[C@@H](CCCCN)C(=O)N[C@@H](C)C(=O)N[C@@H](CC(C)C)C(=O)N[C@@H](C)C(=O)N[C@@H](CCCCN)C(=O)N[C@@H](C)C(=O)N[C@H](C(=O)N[C@@H](CC(C)C)C(N)=O)[C@@H](C)CC)[C@@H](C)CC [NF70] (I: H-[Orn]ILLKALKALAKAIL-NH2 / II: Arachidoyl-HHHHYHHG; amide I:1-II:C) | 92% | 0.0148 µM | 15% | low accessibility of siRNA | very low transfection levels in vivo | 8.3 µM | 4.3 µM | luciferase downregulation efficiency (in words) ([1]; listed as H6-C20): equally strong downregulation of the luciferase gene; also recorded: at MR40 it was even more efficient than PF6 or H4-C18; downregulation of luciferase activity ([1]; H6 series, effect of fatty acid length): up to 95%; IC50 ([1]; complexes formed at MR30, average, listed as H6-C20): 0.0147 µM; IC50 ([1]; complexes formed at MR30 and MR40, similar average value): 0.0147 to 0.0148 µM; hemolytic concentration, fold higher than NF71 (murine red blood cells): 3.6; HC50 times higher than that of NF55 (murine red blood cells; free peptide): 2.5 times; pH dependent hemolytic activity (in words) (murine red blood cells; peptide 0.75 uM, buffer pH 5.5-7.5): the increase was less substantial
